Measurements reported in US20160194380A1, “POTENT INHIBITORS OF HUMAN MATRIPTASE DERIVED FROM MCOTI-II VARIANTS” (MERCK PATENT GMBH, priority 2013, published 2016).
Where a SMILES comes first, the peptide text is derived from it. Bridges are numbered along the chain shown (N, C = ends).

Assays:
matriptase-1 = target: T1, matriptase-1 (Homo sapiens, UniProt Q9Y5Y6); conditions: literature; cited from earlier work
T1 sequence (Q9Y5Y6 1-855): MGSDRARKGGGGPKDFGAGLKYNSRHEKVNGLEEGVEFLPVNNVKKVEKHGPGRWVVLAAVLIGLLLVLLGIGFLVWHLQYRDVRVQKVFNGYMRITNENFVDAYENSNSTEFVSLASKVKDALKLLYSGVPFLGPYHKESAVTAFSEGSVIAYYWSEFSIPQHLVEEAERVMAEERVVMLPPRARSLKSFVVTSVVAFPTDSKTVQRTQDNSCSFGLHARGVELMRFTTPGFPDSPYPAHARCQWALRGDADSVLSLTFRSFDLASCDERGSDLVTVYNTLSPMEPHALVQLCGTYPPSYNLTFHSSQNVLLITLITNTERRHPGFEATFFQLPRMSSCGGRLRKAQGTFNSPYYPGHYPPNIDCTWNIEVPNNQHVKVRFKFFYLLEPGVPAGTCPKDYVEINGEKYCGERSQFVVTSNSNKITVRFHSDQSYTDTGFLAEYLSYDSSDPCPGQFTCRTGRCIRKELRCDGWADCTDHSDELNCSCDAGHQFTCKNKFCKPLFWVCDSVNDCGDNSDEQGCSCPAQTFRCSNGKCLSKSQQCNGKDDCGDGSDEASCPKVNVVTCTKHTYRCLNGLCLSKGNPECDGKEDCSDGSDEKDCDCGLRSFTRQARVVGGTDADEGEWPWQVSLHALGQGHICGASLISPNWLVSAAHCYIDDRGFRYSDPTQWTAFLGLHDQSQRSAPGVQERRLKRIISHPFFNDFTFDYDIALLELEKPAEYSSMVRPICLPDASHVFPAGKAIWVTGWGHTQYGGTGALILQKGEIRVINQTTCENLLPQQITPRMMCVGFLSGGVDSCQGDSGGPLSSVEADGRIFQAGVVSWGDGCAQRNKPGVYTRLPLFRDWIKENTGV

[1] = target: T2, Bovine pancreatic trypsin (Bos taurus, UniProt P00760); test: Protease inhibition assay, trypsin; format: biochemical; conditions: substrate-independent inhibition constant
T2 construct: purchased Sigma-Aldrich; host or cells: bovine pancreas
T2 sequence (P00760 24-246): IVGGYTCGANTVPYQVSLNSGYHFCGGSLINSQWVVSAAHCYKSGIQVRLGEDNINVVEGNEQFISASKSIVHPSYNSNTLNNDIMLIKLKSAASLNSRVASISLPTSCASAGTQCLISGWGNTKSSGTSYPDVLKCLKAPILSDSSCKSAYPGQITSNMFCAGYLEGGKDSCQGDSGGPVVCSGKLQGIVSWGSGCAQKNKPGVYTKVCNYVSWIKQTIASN
Experimental: (§1) D: Biol. Crystallogr., 69(2013), 114-120; Reinwarth, ChemBioChem, 14(2013), 137-146; Boy, Mol. Imaging Biol. 12(2010), 377-385] Measurements were carried out in triplicates using a Tecan Genios ELISA reader.

Human matriptase-1 [2] = target: T3, Human matriptase-1 (Homo sapiens, UniProt Q9Y5Y6); test: Protease inhibition assay, matriptase-1; format: biochemical; conditions: substrate-independent inhibition constant
T3 construct: made in house
T3 sequence (Q9Y5Y6 615-855 limits assumed): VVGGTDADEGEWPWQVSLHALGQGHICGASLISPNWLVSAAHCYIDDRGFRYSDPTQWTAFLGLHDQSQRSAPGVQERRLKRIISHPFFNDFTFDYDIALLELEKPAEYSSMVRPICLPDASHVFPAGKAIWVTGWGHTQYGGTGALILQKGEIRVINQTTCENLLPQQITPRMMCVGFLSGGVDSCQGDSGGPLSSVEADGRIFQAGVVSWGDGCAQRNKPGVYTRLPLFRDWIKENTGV
Experimental: as §1

Human matriptase-1 [3] = test: Protease inhibition assay, matriptase-1; format: biochemical; conditions: matriptase-1 versus trypsin
Experimental: as §1

[4] = system: pro-uPA activation by matriptase-1 on human prostate carcinoma cancer cells (PC-3); test: Cell inhibition assay: inhibition of pro-uPA activation on PC-3 cells; format: cell-based; conditions: overnight incubation, read-out: IC50 (uPA substrate turnover, indirect determination)
Experimental: Urokinase-type plasminogen activator (uPA) causes the degradation of the extracellular matrix and plays a critical role in tumor invasion and metastasis.
Human prostate cancer cells (PC-3, Merck KGaA) were cultured in DMEM medium with 10% FCS at 37° C. and 5% CO2, washed with cation-free PBS and harvested by scraping. In the following 1×10^5 cells were incubated in presence of 250 μM Bz-β-Ala-Gly-Arg-pNA.AcOH (American Diagnostica) and the inhibitor of interest in defined dilutions overnight. Product formation was monitored at 405 nm before and after incubation in a microplate reader. IC50 was calculated by non-linear regression using SigmaPlot 11.

| Compound | Ki (matriptase-1), previously reported (matriptase-1) | Selectivity, previously reported (matriptase-1) | Ki [1] [nM] | Ki (Human matriptase-1 [2]) [nM] | Inhibitory activity for matriptase-1 relative to trypsin (Human matriptase-1 [3]) | IC50 [4] [nM] |
| --- | --- | --- | --- | --- | --- | --- |
| H-R-Q-A-R-Bt | picomolar | low selectivity |  |  |  |  |
| CC[C@H](C)[C@@H]1NC(=O)[C@@H]2CSSC[C@H](NC(=O)[C@@H](NC(=O)CNC(=O)[C@@H](N)CCCCN)C(C)C)C(=O)N3CCC[C@H]3C(=O)N[C@@H](CCCCN)C(=O)N[C@@H](C(C)C)C(=O)N[C@@H](CC(C)C)C(=O)N[C@@H](CCCNC(=N)N)C(=O)N[C@@H](CCCCN)C(=O)N[C@H]3CSSC[C@H](NC1=O)C(=O)N[C@@H](CCCNC(=N)N)C(=O)N[C@@H](C)C(=O)N[C@@H](CC(N)=O)C(=O)NCC(=O)N[C@@H](Cc1ccc(O)cc1)C(=O)N[C@H](C(=O)NCC(N)=O)CSSC[C@H](NC(=O)[C@H](CC(=O)O)NC(=O)[C@H](CO)NC(=O)[C@H](CC(=O)O)NC(=O)[C@H](CCCCN)NC(=O)[C@H](CCCNC(=N)N)NC3=O)C(=O)N1CCC[C@H]1C(=O)NCC(=O)N[C@@H](C)C(=O)N2 [Inhibitor 6] (H-KGVCPKVLRKCRKDSDCPGACICRANGYCG-NH2; disulfide 4-21, 11-23, 17-29) |  |  | 22.3 ± 3 | 7.8 ± 1 |  |  |
| CC[C@H](C)[C@H](N)C(=O)NCC(=O)N[C@H](C(=O)N[C@H]1CSSC[C@@H]2NC(=O)[C@H](C)NC(=O)CNC(=O)[C@@H]3CCCN3C(=O)[C@@H]3CSSC[C@@H](C(=O)NCC(N)=O)NC(=O)[C@H](Cc4ccc(O)cc4)NC(=O)CNC(=O)[C@H](CC(N)=O)NC(=O)CNC(=O)[C@H](CCCNC(=N)N)NC(=O)[C@H](CSSC[C@H](NC(=O)[C@H](C)NC(=O)[C@H](CCCNC(=N)N)NC(=O)[C@H](CC(C)C)NC(=O)[C@H](CC(C)C)NC(=O)[C@H](CCCCN)NC(=O)[C@@H]4CCCN4C1=O)C(=O)N[C@@H](CCCNC(=N)N)C(=O)N[C@@H](CCCNC(=N)N)C(=O)N[C@@H](CC(=O)O)C(=O)N[C@@H](CO)C(=O)N[C@@H](CC(=O)O)C(=O)N3)NC(=O)[C@H]([C@@H](C)CC)NC2=O)C(C)C [Inhibitor 4] (H-IGVCPKLLRACRRDSDCPGACICRGNGYCG-NH2; disulfide 4-21, 11-23, 17-29) |  |  | 31.7 ± 4.3 | 4.4 ± 0.6 |  |  |
| CC[C@H](C)[C@@H]1NC(=O)[C@@H]2CSSC[C@H](NC(=O)[C@@H](NC(=O)CNC(=O)[C@@H](N)Cc3c[nH]c4ccccc34)C(C)C)C(=O)N3CCC[C@H]3C(=O)N[C@@H](CCCCN)C(=O)N[C@@H](C(C)C)C(=O)N[C@@H](CC(C)C)C(=O)N[C@@H](CCCNC(=N)N)C(=O)N[C@@H](CC(N)=O)C(=O)N[C@H]3CSSC[C@H](NC1=O)C(=O)N[C@@H](CC(C)C)C(=O)NCC(=O)N[C@@H](CC(N)=O)C(=O)NCC(=O)N[C@@H](Cc1ccc(O)cc1)C(=O)N[C@H](C(=O)NCC(N)=O)CSSC[C@H](NC(=O)[C@H](CC(=O)O)NC(=O)[C@H](CO)NC(=O)[C@H](CC(=O)O)NC(=O)[C@H](CCCNC(=N)N)NC(=O)[C@H](CCCNC(=N)N)NC3=O)C(=O)N1CCC[C@H]1C(=O)NCC(=O)N[C@@H](C)C(=O)N2 [Inhibitor 7] (H-WGVCPKVLRNCRRDSDCPGACICLGNGYCG-NH2; disulfide 4-21, 11-23, 17-29; N-terminus assumed) |  |  | 35.8 ± 4.7 | 0.83 ± 0.14 | approximately fortyfold | 213 |
| CC[C@H](C)[C@@H]1NC(=O)[C@@H]2CSSC[C@H](NC(=O)[C@H](CCCNC(=N)N)NC(=O)[C@H](CCCNC(=N)N)NC(=O)[C@@H](N)CC(N)=O)C(=O)N3CCC[C@H]3C(=O)N[C@@H](CCCCN)C(=O)N[C@@H](C(C)C)C(=O)N[C@@H](CC(C)C)C(=O)N[C@@H](CCCCN)C(=O)N[C@@H](C)C(=O)N[C@H]3CSSC[C@H](NC1=O)C(=O)N[C@@H](CCCNC(=N)N)C(=O)NCC(=O)N[C@@H](CC(N)=O)C(=O)NCC(=O)N[C@@H](Cc1ccc(O)cc1)C(=O)N[C@H](C(=O)NCC(N)=O)CSSC[C@H](NC(=O)[C@H](CC(=O)O)NC(=O)[C@H](CO)NC(=O)[C@H](CC(=O)O)NC(=O)[C@H](CCCNC(=N)N)NC(=O)[C@H](CCCNC(=N)N)NC3=O)C(=O)N1CCC[C@H]1C(=O)NCC(=O)N[C@@H](C)C(=O)N2 [Inhibitor 5] |  |  | 19.2 ± 2.8 | 3.3 ± 0.4 |  |  |
